This is an account of results in patent US8987189B2, “Treating hepatitis C virus infection” (Board of Regents, The University of Texas System, priority 2007, dated 2015).

In one data set the test system is genotype 2a HCV. Description: HCV release assay in Huh7-GL cells (HCV RNA copy number and titer in medium, intracellular HCV RNA). It is filed as cell-based, hepatitis C virus. To be noted: for cellular release of virus (HCV RNA copy numbers and titers in the media): Huh7-GL cells, 1 nM, 10 nM, 100 nM and 500 nM, 16 hr then 4 hours in serum-free medium. How it is done: (§1) Huh7-GL cells were incubated in the absence or presence of the MTP inhibitor […]. Following incubation in serum-free medium, culture medium was harvested and the amount of HCV RNA, HCV titer, and apoB in the medium was measured.
Huh7-GL cells are cultured as described in Example 2. On day 1, the cells are treated with 1 nM, 10 nM, 100 nM, and 500 nM of the following MTP inhibitors: BMS-201038 (positive control), BMS-200150, BMS-212122, BMS-197636, JTT-130, Implitapide, mitratapide, and CP-346086. 16 hr later on day 2, cells are switched to serum-free medium in the absence or presence of the same amount of the MTP inhibitor.

For data set [1] the following is noted: previous clinical trials; cited from earlier work.
In another data set the test system is HCV. The data set can be described thus: Randomized, double-blind, placebo-controlled trial in patients with chronic HCV infection. To be noted: 0.15 mg per kilogram twice daily, 12-week course. How it is done:
Patients are recruited and are eligible for enrollment if they are positive for HCV RNA on serologic testing after at least 3 months of interferon therapy. Patients who can not tolerate interferon because of severe side effects, such as fatigue, neuropsychiatric disturbances, or thrombocytopenia, are also included.
Physicians and patients are blinded to treatment assignments. Patients are evaluated every 3 weeks for compliance, which is assessed by pill count, and for the development of adverse reactions. […] At each evaluation visit, a complete blood count is done and serum levels of electrolytes, blood urea nitrogen, creatinine, aspartate aminotransferase, alanine aminotransferase, albumin, and total bilirubin are measured. Titers of serum HCV RNA are assessed before enrollment, at each evaluation visit, and 6 weeks after the final dose by using a […] multicycle reverse transcription polymerase chain reaction method. Titers are calculated up to 5 million copies/mL; if a titer is greater than 5 million copies/mL, it is simply reported as such and the exact value is not given.

The subject of a further data set is apoB. Description: apoB mRNA and apoB secretion in Huh7-GL cells. Type of data set: cell-based, human. The conditions noted are these: Huh7-GL cells incubated with MTP inhibitor, serum-free medium. As for the experimental part: We transfected Huh7-GL cells, a line of Huh7 cells that contain a chromosomally integrated genotype 2a HCV cDNA and constitutively produce infectious virus (Cai et al., 2005), with a duplex siRNA targeting apoB or GFP as a control. Following incubation in serum-free medium, culture medium was harvested and the amount of apoB and HCV in the medium was analyzed. […] In control cells transfected with the GFP siRNA, the HCV copy number and titer increased by more than 10 fold during the period of 4-hr incubation. In cells receiving the apoB siRNA, this increase was reduced by about 50% as assayed by viral copy number, and 70% as assayed by the viral titer.
as §1

[2] abbreviates: Huh7-GL cells incubated with MTP inhibitor vs absence of inhibitor.

In the case of `CCCNC(=O)C1(CCCCN2CCC(N3Cc4ccccc4C3=O)CC2)c2ccccc2-c2ccccc21` [BMS-197636], in the data set on genotype 2a HCV, the “cellular release of virus (HCV RNA copy numbers and titers in the media)” value (shortened to “cellular release of virus”) is given as “decreases in cellular release of virus”. Turning to `O=C1c2ccccc2CN1C1CCN(CCC(c2ccccc2)c2ccccc2)CC1` [BMS-200150], in the data set on genotype 2a HCV, the “cellular release of virus” value is “decreases in cellular release of virus”.

For the compound `O=C(NC1CCN(CCCCC2(C(=O)NCC(F)(F)F)c3ccccc3-c3ccccc32)CC1)c1ccccc1-c1ccc(C(F)(F)F)cc1` [BMS-201038], the “intracellular HCV RNA” value in the data set with genotype 2a HCV (Huh7-GL cells in the absence or presence of the MTP inhibitor) was “remained the same”. Also, in the data set with genotype 2a HCV (setting [2]), the “reduction of the amount of HCV RNA in the medium” value is “about 80%” and the “reduction of viral titer in the medium” value is reported as “about 80%”. In addition, the “cellular release of virus” value in the data set on genotype 2a HCV is listed as “decreases in cellular release of virus”. In addition, in data set [1], the tolerability entry is reported as “high tolerability”. Further, the “serum viremia (viral load, aminotransferase levels)” value in the data set with HCV is listed as “decrease in serum viremia”. In addition, in the data set on apoB, the “secretion of apoB” value is “blocked”.

As to `Cc1ccc2c(nc(C)n2CCCCC2(C(=O)NCC(F)(F)F)c3ccccc3-c3ccccc32)c1NC(=O)c1ccccc1-c1ccc(C(F)(F)F)cc1` [BMS-212122], in the data set with genotype 2a HCV, the “cellular release of virus” value was “decreases in cellular release of virus”.

In the case of `O=C(Nc1ccc2c(c1)CCN(Cc1ncn[nH]1)C2)c1ccccc1-c1ccc(C(F)(F)F)cc1` [CP-346086], the “cellular release of virus” value in the data set on genotype 2a HCV was “decreases in cellular release of virus”.

Turning to `CCOC(=O)C(COC(=O)Cc1ccc(NC(=O)c2ccccc2-c2ccc(C(F)(F)F)cc2)c(C(=O)N(C)C)c1)(C(=O)OCC)c1ccccc1` [JTT-130], the “cellular release of virus” value with genotype 2a HCV is “decreases in cellular release of virus”. As to `CC[C@@H](C)n1ncn(-c2ccc(N3CCN(c4ccc(OC[C@@H]5CO[C@@](CSc6nncn6C)(c6ccc(Cl)cc6)O5)cc4)CC3)cc2)c1=O` [mitratapide], the “cellular release of virus” value in the data set on genotype 2a HCV is given as “decreases in cellular release of virus”.

For the compound implitapide, in the data set with genotype 2a HCV, the “cellular release of virus” value is given as “decreases in cellular release of virus”.
